Experimental data published in US20220281848A1, “PYRAZOLE-SUBSTITUTED PYRROLIDINONES AS HERBICIDES” (FMC Corporation, priority 2019, published 2022).

Tested on: plants
Test: Test D pre-emergence, other plants of Tables D1 and D3
Format: in vivo
Details: preemergent, 20 DAA
Protocol: A formulation containing 50 g/L of the test chemical was prepared by dissolving the active ingredient in a mixture of organic solvents and emulsifier, details of which are provided in the table. This formulation was then mixed with a small, variable amount of acetone to aid dissolution, before addition of a 0.2% v/v aqueous solution of an adjuvant, as the aqueous diluent, to form an aqueous spray solution which contains a predetermined concentration of the active ingredient.
This aqueous spray solution was then sprayed onto plants including maize and wheat that had been seed treated with a herbicide safener, after one day's cultivation (for pre-emergence) or after about 12 days' cultivation (for post-emergence). The plants were grown from seeds sown in standard soil, placed in a glasshouse under controlled conditions (at 24/18° C. or 20/16° C., day/night; 16 h light; 65% humidity). After spray application the plants were then grown in a glasshouse under the same conditions and watered twice daily. After 15 d for post-emergence and 20 DAA for pre-emergence the test was evaluated (100=total damage to plant; 0=no damage to plant).

CN1CC(c2cc(C(F)(F)F)n(C)n2)C(C(=O)Nc2ccc(F)nc2F)C1=O (racemic) [Compound 22]
damage to plant (100=total damage to plant; 0=no damage to plant), ABUTH (rate 15): 0
damage to plant (100=total damage to plant; 0=no damage to plant), ABUTH (rate 30): 0
damage to plant (100=total damage to plant; 0=no damage to plant), ABUTH (rate 60): 0
damage to plant (100=total damage to plant; 0=no damage to plant), ABUTH (rate 130): 0
damage to plant (100=total damage to plant; 0=no damage to plant), ABUTH (rate 250): 0
damage to plant (100=total damage to plant; 0=no damage to plant), ABUTH (rate 500): 0
damage to plant (100=total damage to plant; 0=no damage to plant), AMARE (rate 15): 0
damage to plant (100=total damage to plant; 0=no damage to plant), AMARE (rate 30): 0
damage to plant (100=total damage to plant; 0=no damage to plant), AMARE (rate 60): 0
damage to plant (100=total damage to plant; 0=no damage to plant), AMARE (rate 130): 0
damage to plant (100=total damage to plant; 0=no damage to plant), AMARE (rate 250): 0
damage to plant (100=total damage to plant; 0=no damage to plant), AMARE (rate 500): 0
damage to plant (100=total damage to plant; 0=no damage to plant), BIDPI (rate 15): 0
damage to plant (100=total damage to plant; 0=no damage to plant), BIDPI (rate 30): 0
damage to plant (100=total damage to plant; 0=no damage to plant), BIDPI (rate 60): 0
damage to plant (100=total damage to plant; 0=no damage to plant), BIDPI (rate 130): 0
damage to plant (100=total damage to plant; 0=no damage to plant), BIDPI (rate 250): 0
damage to plant (100=total damage to plant; 0=no damage to plant), BIDPI (rate 500): 0
damage to plant (100=total damage to plant; 0=no damage to plant), BRAPL (rate 15): 0
damage to plant (100=total damage to plant; 0=no damage to plant), BRAPL (rate 30): 20
damage to plant (100=total damage to plant; 0=no damage to plant), BRAPL (rate 60): 70
damage to plant (100=total damage to plant; 0=no damage to plant), BRAPL (rate 130): 80
damage to plant (100=total damage to plant; 0=no damage to plant), BRAPL (rate 250): 90
damage to plant (100=total damage to plant; 0=no damage to plant), BRAPL (rate 500): 90
damage to plant (100=total damage to plant; 0=no damage to plant), CYPES (rate 15): 0
damage to plant (100=total damage to plant; 0=no damage to plant), CYPES (rate 30): 0
damage to plant (100=total damage to plant; 0=no damage to plant), CYPES (rate 60): 0
damage to plant (100=total damage to plant; 0=no damage to plant), CYPES (rate 130): 0
damage to plant (100=total damage to plant; 0=no damage to plant), CYPES (rate 250): 0
damage to plant (100=total damage to plant; 0=no damage to plant), CYPES (rate 500): 0
damage to plant (100=total damage to plant; 0=no damage to plant), DIGSA (rate 15): 0
damage to plant (100=total damage to plant; 0=no damage to plant), DIGSA (rate 30): 20
damage to plant (100=total damage to plant; 0=no damage to plant), DIGSA (rate 60): 80
damage to plant (100=total damage to plant; 0=no damage to plant), DIGSA (rate 130): 80
damage to plant (100=total damage to plant; 0=no damage to plant), DIGSA (rate 250): 100
damage to plant (100=total damage to plant; 0=no damage to plant), DIGSA (rate 500): 100
damage to plant (100=total damage to plant; 0=no damage to plant), ECHCG (rate 15): 0
damage to plant (100=total damage to plant; 0=no damage to plant), ECHCG (rate 30): 0
damage to plant (100=total damage to plant; 0=no damage to plant), ECHCG (rate 60): 60
damage to plant (100=total damage to plant; 0=no damage to plant), ECHCG (rate 130): 80
damage to plant (100=total damage to plant; 0=no damage to plant), ECHCG (rate 250): 90
damage to plant (100=total damage to plant; 0=no damage to plant), ECHCG (rate 500): 100
damage to plant (100=total damage to plant; 0=no damage to plant), ELEIN (rate 15): 0
damage to plant (100=total damage to plant; 0=no damage to plant), ELEIN (rate 30): 0
damage to plant (100=total damage to plant; 0=no damage to plant), ELEIN (rate 60): 0
damage to plant (100=total damage to plant; 0=no damage to plant), ELEIN (rate 130): 0
damage to plant (100=total damage to plant; 0=no damage to plant), ELEIN (rate 250): 0
damage to plant (100=total damage to plant; 0=no damage to plant), ELEIN (rate 500): 0
damage to plant (100=total damage to plant; 0=no damage to plant), EPHHL (rate 15): 0
damage to plant (100=total damage to plant; 0=no damage to plant), EPHHL (rate 30): 0
damage to plant (100=total damage to plant; 0=no damage to plant), EPHHL (rate 60): 0
damage to plant (100=total damage to plant; 0=no damage to plant), EPHHL (rate 130): 0
damage to plant (100=total damage to plant; 0=no damage to plant), EPHHL (rate 250): 0
damage to plant (100=total damage to plant; 0=no damage to plant), EPHHL (rate 500): 0
damage to plant (100=total damage to plant; 0=no damage to plant), GLXMA (rate 15): 0
damage to plant (100=total damage to plant; 0=no damage to plant), GLXMA (rate 30): 0
damage to plant (100=total damage to plant; 0=no damage to plant), GLXMA (rate 60): 0
damage to plant (100=total damage to plant; 0=no damage to plant), GLXMA (rate 130): 0
damage to plant (100=total damage to plant; 0=no damage to plant), GLXMA (rate 250): 0
damage to plant (100=total damage to plant; 0=no damage to plant), GLXMA (rate 500): 0
damage to plant (100=total damage to plant; 0=no damage to plant), IPOHE (rate 15): 0
damage to plant (100=total damage to plant; 0=no damage to plant), IPOHE (rate 30): 0
damage to plant (100=total damage to plant; 0=no damage to plant), IPOHE (rate 60): 0
damage to plant (100=total damage to plant; 0=no damage to plant), IPOHE (rate 130): 0
damage to plant (100=total damage to plant; 0=no damage to plant), IPOHE (rate 250): 0
damage to plant (100=total damage to plant; 0=no damage to plant), IPOHE (rate 500): 0
damage to plant (100=total damage to plant; 0=no damage to plant), ORYSA (rate 15): 0
damage to plant (100=total damage to plant; 0=no damage to plant), ORYSA (rate 30): 0
damage to plant (100=total damage to plant; 0=no damage to plant), ORYSA (rate 60): 0
damage to plant (100=total damage to plant; 0=no damage to plant), ORYSA (rate 130): 0
damage to plant (100=total damage to plant; 0=no damage to plant), ORYSA (rate 250): 0
damage to plant (100=total damage to plant; 0=no damage to plant), ORYSA (rate 500): 0
damage to plant (100=total damage to plant; 0=no damage to plant), PANMI (rate 15): 0
damage to plant (100=total damage to plant; 0=no damage to plant), PANMI (rate 30): 0
damage to plant (100=total damage to plant; 0=no damage to plant), PANMI (rate 60): 0
damage to plant (100=total damage to plant; 0=no damage to plant), PANMI (rate 130): 0
damage to plant (100=total damage to plant; 0=no damage to plant), PANMI (rate 250): 0
damage to plant (100=total damage to plant; 0=no damage to plant), PANMI (rate 500): 0
damage to plant (100=total damage to plant; 0=no damage to plant), SETFA (rate 15): 0
damage to plant (100=total damage to plant; 0=no damage to plant), SETFA (rate 30): 0
damage to plant (100=total damage to plant; 0=no damage to plant), SETFA (rate 60): 0
damage to plant (100=total damage to plant; 0=no damage to plant), SETFA (rate 130): 30
damage to plant (100=total damage to plant; 0=no damage to plant), SETFA (rate 250): 60
damage to plant (100=total damage to plant; 0=no damage to plant), SETFA (rate 500): 90
damage to plant (100=total damage to plant; 0=no damage to plant), SORVU (rate 15): 0
damage to plant (100=total damage to plant; 0=no damage to plant), SORVU (rate 30): 0
damage to plant (100=total damage to plant; 0=no damage to plant), SORVU (rate 60): 0
damage to plant (100=total damage to plant; 0=no damage to plant), SORVU (rate 130): 0
damage to plant (100=total damage to plant; 0=no damage to plant), SORVU (rate 250): 0
damage to plant (100=total damage to plant; 0=no damage to plant), SORVU (rate 500): 0
